# In article PMC5766581, “NF-κB inducing kinase is a therapeutic target for systemic lupus erythematosus” (Nature Communications, 2018):
# pIC50: −log10 of the molar value. “Also recorded” adds a separate entry of the source.
# Experiments:
# [1] = tested on: nuclear RelA (canonical NF-κB signaling); assay: High content nuclear RelA imaging, TNF-stimulated HeLa cells; format: cell-based, human
# Experimental: The HeLa cell line was used to define the cellular selectivity of NIK inhibitors toward inhibition of classical vs. non-classical NF-κB signaling using high content cellular imaging assays. For the nuclear translocation assay p52 (non-canonical NF-κB signaling), HeLa cells were treated with different concentrations of compounds previously diluted in DMSO (final [DMSO] = 0.2% in all wells) in DMEM medium (10% FBS, 2 mM Glutamine) and then stimulated with 300 ng/mL of an anti-lymphotoxin beta receptor antibody for 4.5 h. In the REL-A nuclear translocation assay, HeLa cells were incubated with compounds for 4 h 50 min before stimulating them with 2 ng/mL TNF (R&D Systems) for 10 min. Cells were fixed with 4% paraformaldehyde, permeabilized by adding 0.1% Triton X-100 in phosphate buffered saline, and then are incubated with either 2 μg/mL anti-p52 antibody or 400 ng/mL anti-REL-A (p65) antibody. Finally, the cells are incubated with an Alexa488-labeled secondary antibody (Invitrogen) and DRAQ5 DNA stain (Biostatus). Imaging was carried out using an Opera reader (Perkin Elmer) and data were analyzed with Acapella software (Perkin Elmer). The p52 or REL-A translocation into the nucleus is quantified by the ratio of the nuclear to cytoplasmic signal intensity.
# [2] = tested on: rhCD40L induced ICOSL expression on human B cells; assay: ICOSL expression on human B cell assay; format: cell-based; details: B-cell, ICOSL MFI by FACS, mean ± SD, read-out: CD40-induced ICOSL IC50
# Experimental: Human B cells were isolated from whole blood. B cells were enriched by RosetteSep protocol (Stem Cell Technologies), and then isolated using Human B cell isolation kit II (Miltenyi). […] Mean fluorescent intensity (MFI) of CD40L and BAFF induced ICOSL expression was measured by flow cytometry on cells stained with anti-CD20 and anti-ICOSL, using a FACS Calibur instrument (BD). Plots and IC50 measurements were generated using GraphPad Prism Software.
# [3] = tested on: IL-12p40 production from human monocyte derived DC; assay: CD40L induced IL-12p40 production from human DCs; format: cell-based
# Experimental: Human monocytes were enriched from whole blood (Monocyte enrichment RosetteSep, Stem Cell) followed by isolation using Monocyte Isolation Kit II (Miltenyi). Isolated monocytes were cultured (RPMI-10% FBS, penicillin/streptomycin, glutamine) with rhGM-CSF (100 ng/mL) and rhIL-4 (6.5 ng/mL) (R&D Systems) for 5 days with GM-CSF replacement on day 3. On Day 5 immature monocyte derived DCs were monitored for differentiation by flow cytometry ([…], CD83^low CD86^low CD209^+/hi). […] After 24 h plates were centrifuged and supernatants were removed for IL-12p40 cytokine measurement by ELISA (BD Biosciences). Plots and IC50 measurements were generated using GraphPad Prism software.
# human B cells [4] = assay: Human B cell anti-IgM proliferation assay; format: cell-based; details: Homo sapiens, B-cell; thymidine incorporation, day four
# human B cells [5] = assay: Human B cell rhCD40L proliferation assay; format: cell-based; details: Homo sapiens, B-cell; thymidine incorporation, day four; read-out: Human B cell anti-CD40 proliferation IC50
# NZB/W F1 mice [6] = assay: rAdV-IFNα-accelerated NZB/W F1 lupus model, 4-week biomarker study; format: in vivo; details: 180 mg/kg BID P.O.
# Experimental: (§1) Age-matched (NZB x NZW) F1 mice were purchased from Jackson Laboratory. Fourteen to fifteen weeks old female NZB/W F1 mice were injected i.v. with 1.2 × 10^8 rAD5-CMV-IFNα (rAdV-IFNα) particles (Genentech) to accelerate disease[34],[69]. […] In efficacy studies, proteinuria and survival were tracked through day 84. A 4-week PD study was performed to measure cell subsets, serum Ig, chemokines, cytokines, and gene expression.
# (§2) Kidneys were immersed in 10% neutral buffered formalin at ambient temperature for 24 h, then paraffin-embedded using routine methods. Four micron histologic sections were stained with Periodic acid–Schiff (PAS) for evaluation of glomerulonephritis and hematoxylin and eosin (H&E) for visual evaluation of interstitial inflammation by light microscopy. Scoring by the pathologist was performed in a blinded fashion. Glomerulonephritis severity scoring was on a 4-point semi-quantitative scale: “0” – normal or mild global lesions in <50% of glomeruli, “1”—global lesions in > 50% of glomeruli, <20% of which are severe (defined as >1 segment with <3 patent capillaries), “2”—global lesions in >50% of glomeruli, 20–80% of which are severe, and “3”— >80% of glomeruli with severe global lesions. Chronic pyelitis, cortical periarteritis, and tubulointerstitial nephritis severity was determined by blinded disease scoring. Severity scores for tubulointerstitial nephritis, periarteritis, and pyelitis were all on 4-point semiquantitative scales: “0”—no significant inflammation, “1”—sparse or focal inflammatory infiltrates, “2”—occasional moderately sized inflammatory infiltrates, and “3”—frequent large inflammatory infiltrates. Proteinuria measurements were done by dipstick (Multistix, Bayer Diagnostics). Protein concentration was assigned a proteinuria score with trace = […] = 1, 100 mg/dl = 2, >300 mg/dl = 4, and dead mice = 5.
# NZB/W F1 mice [7] = assay: rAdV-IFNα-accelerated NZB/W F1 lupus model, survival study; format: in vivo, mouse
# Experimental: as §1, §2
# FVB mice = assay: Imiquimod-induced FVB mouse lupus model; format: in vivo; details: 200 mg/kg P.O. BID; Imiquimod treated FVB mice
# Experimental: Age-matched female FVB mice were purchased from Jackson Laboratory and randomized into experimental groups upon receipt. Ten-week-old female FVB mice were treated with 10 mg of 5% Imiquimod cream (Taro Pharmaceuticals, USA, Hawthorne, N.Y.) applied to the left ear (three doses per week for the duration of the study). […] Proteinuria and survival were tracked through day 91. Plasma PK measurement was done at day 85 prior to the end of the study.
# Hyl = target: T1, Hyl (Homo sapiens, UniProt P42679); assay: SelectScreen kinase panel; format: biochemical
# T1 construct: purchased Invitrogen / ThermoFisher SelectScreen
# T1 sequence (P42679 whole entry): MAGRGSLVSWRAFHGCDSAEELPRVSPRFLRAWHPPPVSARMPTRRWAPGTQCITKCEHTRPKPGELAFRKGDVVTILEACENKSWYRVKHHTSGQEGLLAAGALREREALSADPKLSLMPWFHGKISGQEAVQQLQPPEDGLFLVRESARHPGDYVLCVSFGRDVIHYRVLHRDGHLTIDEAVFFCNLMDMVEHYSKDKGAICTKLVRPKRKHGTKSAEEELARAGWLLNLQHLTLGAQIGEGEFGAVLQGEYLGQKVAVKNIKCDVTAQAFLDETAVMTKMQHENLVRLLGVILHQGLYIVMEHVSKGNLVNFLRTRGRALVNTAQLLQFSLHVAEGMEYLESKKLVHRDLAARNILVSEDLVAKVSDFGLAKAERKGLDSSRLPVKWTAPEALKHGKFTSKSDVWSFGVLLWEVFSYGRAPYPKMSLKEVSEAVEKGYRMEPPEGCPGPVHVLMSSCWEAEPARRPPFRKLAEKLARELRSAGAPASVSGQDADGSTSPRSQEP
# CDK5/p25 = target: T2, CDK5/p25 (Homo sapiens, UniProt Q00535); assay: SelectScreen kinase panel; format: biochemical
# T2 construct: purchased Invitrogen / ThermoFisher SelectScreen
# T2 sequence (Q00535 whole entry): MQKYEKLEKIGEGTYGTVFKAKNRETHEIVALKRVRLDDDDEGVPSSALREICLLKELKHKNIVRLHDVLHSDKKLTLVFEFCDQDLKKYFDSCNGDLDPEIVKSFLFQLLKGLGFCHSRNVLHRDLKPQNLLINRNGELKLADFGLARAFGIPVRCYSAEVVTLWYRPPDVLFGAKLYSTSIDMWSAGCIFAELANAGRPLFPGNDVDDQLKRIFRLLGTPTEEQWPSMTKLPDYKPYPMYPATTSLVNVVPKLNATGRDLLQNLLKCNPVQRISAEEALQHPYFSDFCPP
# T2 sequence (Q15078 99-307 partner limits assumed): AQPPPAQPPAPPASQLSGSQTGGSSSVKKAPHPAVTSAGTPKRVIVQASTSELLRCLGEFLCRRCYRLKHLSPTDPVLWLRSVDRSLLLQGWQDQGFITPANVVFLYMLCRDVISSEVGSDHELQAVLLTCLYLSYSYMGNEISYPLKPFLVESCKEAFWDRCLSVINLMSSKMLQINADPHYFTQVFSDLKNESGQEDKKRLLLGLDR
smiles,measurement,setting,value
COc1cc(C(N)=O)nc(-c2cccc(C#C[C@]3(O)CCN(C)C3=O)c2)c1 [NIK SMI1],effect on canonical signaling as measured by TNF alpha-induced nuclear relA levels,[1],no effect
same,pIC50,"[1]; Homo sapiens, TNF induced",< 5.70
same,pIC50,[2],7.07
same,CD40L-induced IL-12p40 production,[3]; dendritic cells,nearly completely inhibited
same,pIC50,"[3]; human monocyte derived DC, rhCD40L, mean ± SD, read-out: CD40-induced IL-12 p40 IC50",7.02
same,pIC50,human B cells [4],< 5.00
same,pIC50,human B cells [5],< 5.00
same,"frequency and numbers of splenic B cells, germinal center B cells and plasma cells",NZB/W F1 mice [6]; 4 weeks,decreased
same,frequency and numbers of splenic T effector memory (TEM) and T follicular helper (TFH) cells,NZB/W F1 mice [6]; 4 weeks,significantly reduced
same,frequency and numbers of total CD4+ T-cells,NZB/W F1 mice [6]; 4 weeks,did not affect
same,histopathologic scores of glomerulonephritis,NZB/W F1 mice [6]; 4 weeks,reduced
same,"kidney expression of CCL9, CCL2, CXCL13 and CXCL11",NZB/W F1 mice [6]; 4 weeks,reduced
same,serum CXCL16,NZB/W F1 mice [6]; 4 weeks,significantly reduced
same,serum TNF and IL-12p40,NZB/W F1 mice [6]; 4 weeks,reduced
same,spleen weight or total splenocyte count,NZB/W F1 mice [6]; 4 weeks,did not have a substantial effect
same,splenic expression of ICOS and IL-21,NZB/W F1 mice [6]; 4 weeks,reduced
same,splenic expression of Immunoglobulin J (Igj),NZB/W F1 mice [6]; 4 weeks,strongly suppressed
same,suppression of serum anti-histone autoantibodies,"NZB/W F1 mice [6]; 4 weeks, vs BR3-mIgG2a",superior to BAFF blockade
same,terminal exposure vs in vitro IC70,NZB/W F1 mice [6]; 12 hours after final dose,at or above the in vitro-determined IC70 concentration
same,reduction of mortality,"NZB/W F1 mice [7]; 180 mg/kg BID P.O., 9 weeks",about 50%
same,inhibition of NIK at the time point of lowest exposure,"NZB/W F1 mice [7]; 180 mg/kg, 12 h after the prior dose, based on PK sampling",about 70%
same,proteinuria score,"NZB/W F1 mice [7]; 9 weeks of treatment, AUC day 19-84",statistically significant reduction
same,survival,NZB/W F1 mice [7]; IFNα-accelerated NZB/W F1 mice,improved survival
same,survival,FVB mice,efficacious; also recorded: improved survival
same,inhibition at 1 µM,Hyl,4.5%
same,inhibition at 1 µM,CDK5/p25,2.5%
